Key:
Assay type in all cases: in vivo, C57BL/6NTac mice
Iba-1 = assay: Immunohistochemical staining for Iba-1 (microglia activation) in brain of CRS model; conditions: hippocampus and amygdala, CRS+BA group, 100 mg/kg oral
Description: (§1) In order to confirm the antidepressant efficacy of bornyl acetate on the animal model of stress depression, an animal model of depression induced by chronic restrained stress (CRS) was prepared. Specifically, the animal model, 8-week-old male C57BL/6NTac mice after birth (Narabiotechnology, Korea; weight 22-24 g) had been stabilized for 1 week. A 50 ml conical tube (SPL Life sciences, Pocheon, Korea) was punched to make a hole, thereby making a restraint frame. The mice were put in the frame and restrained for 2 hours every day for 14 days. After restraint, the mice were allowed to freely ingest water and food in the home cage. Bornyl acetate (100 mg/kg) was administered orally 1 hour before induction of restraint stress every day. 14 days later, the mice were anesthetized, and 4% paraformaldehyde was perfused into the heart. Then, the mice were fixed, and the brain was excised. The excised brain was immersed in 4% paraformaldehyde and fixed at 4° C. for one more day. It was then changed to 30% sucrose, and the brain was stored at 4° C. for 3 days or more to prevent freeze damage. The brain was cut into a thickness of 30 μm using a cryocut microtome to prepare the frozen sections. […]

c-Fos = assay: Immunohistochemical staining for c-Fos in brain of CRS model; conditions: hippocampus and amygdala, CRS+BA group, 100 mg/kg oral
Description: as §1

[1] = Body weight change in chronic restrained stress (CRS) depression model; conditions: CRS+BA group, oral, 14 days of restrained stress, 14th day
Description: In order to confirm the antidepressant efficacy of bornyl acetate on the animal model of stress depression, an animal model of depression induced by chronic restrained stress (CRS) was prepared. Specifically, the animal model, 8-week-old male C57BL/6NTac mice after birth (Narabiotechnology, Korea; weight 22-24 g) had been stabilized for 1 week. A 50 ml conical tube (SPL Life sciences, Pocheon, Korea) was punched to make a hole, thereby making a restraint frame. The mice were put in the frame and restrained for 2 hours every day for 14 days. After restraint, the mice were allowed to freely ingest water and food in the home cage. Bornyl acetate (25, 50 and 100 mg/kg) of the present invention was dissolved in 0.1 M PBS, and the mixture was orally administered 1 hour before inducing restrained stress every day. Bornyl acetate was administered in a dose per individual of 100 μl. Specifically, the mice were weighed during or after applying restrained stress for 2 hours per day for 14 days, followed by a tail suspension test and forced swimming test were performed, and serum stress hormone (corticosterone) levels were measured (FIGS. 1A and 1B).

## CC(=O)OC1CC2CCC1(C)C2(C)C (stereo not drawn) [BA, bornyl acetate]
Iba-1
  activation degree of microglia immunostained by Iba-1: consistent
c-Fos
  distribution of cells immunostained by c-Fos: consistent
[1]
  body weight change: no significant increase or decrease
